Article PMC3210832 (Journal of Pharmaceutical Sciences, 2011)

Key:
HIV-1 protease = HIV-1 protease (Human immunodeficiency virus type 1 group M subtype B, UniProt P04585); assay: HIV-1 protease inhibition, fluorometric assay; type: biochemical
HIV-1 in MT4 cells = assay: In vitro anti-HIV activity in MT4 cells, colorimetric XTT assay; type: cell-based; conditions: Human immunodeficiency virus 1, MT4
Transport = conditions: rat, pH 7.4
[1] = Bidirectional transport across Caco-2 cell monolayers; conditions: human, Caco-2, pH 7.4

| Structure (SMILES) | Ki (HIV-1 protease) [nM] | EC50 (HIV-1 in MT4 cells) [nM] | Papp (Transport) [×10⁻⁶ cm/s] | Papp at 90 min (Transport) [×10⁻⁶ cm/s] | Papp A→B [1] [×10⁻⁶ cm/s] | Papp B→A [1] [×10⁻⁶ cm/s] | efflux ratio [1] |
| --- | --- | --- | --- | --- | --- | --- | --- |
| CNC(=O)[C@@H](NC(=O)[C@](O)(Cc1ccccc1)CN(Cc1ccc(-c2ccccn2)cc1)NC(=O)[C@@H](NC(=O)OC)C(C)(C)C)C(C)(C)C [Compound 11, methyl (S)-1-(2-((S)-2-benzyl-3-((S)-3,3-dimethyl-1-(methylamino)-1-oxobutan-2-ylamino)-2-hydroxy-3-oxopropyl)-2-(4-(pyridin-2-yl)benzyl)hydrazinyl)-3,3-dimethyl-1-oxobutan-2-ylcarbamate] | 23 | > 10000 | 3.8 | < 8 | 3.4 ± 0.4 | 26 ± 9.1 | 7.6 |
| CC(C)(C)NC(=O)[C@@H]1CN(Cc2cccnc2)CCN1C[C@@H](O)C[C@@H](Cc1ccccc1)C(=O)N[C@H]1c2ccccc2C[C@H]1O [Indinavir, reference compound] | – | 41 | – | – | – | – | – |
